Experimental data published in ChEMBL document CHEMBL4732252, “Generating Selective Leads for Mer Kinase Inhibitors-Example of a Comprehensive Lead-Generation Strategy” (J Med Chem, 2021).
Converted amounts (≈) assume the structure as drawn.

Assays:
[1] = target: T1, Tyrosine-protein kinase Mer (Homo sapiens, UniProt Q12866); assay: (§1) Inhibition of 6His/thrombin cleavage site-fused Avi-tagged dephosphorylated MER (unknown origin) (R528 to M999 residues) using Axltide (CKKSRGDYMTMQJG-acid) peptide as substrate preincubated for 30 mins followed by substrate and ATP addition at Km concentration measured after 120 mins by RapidFire LC-MS analysis
T1 sequence (Q12866 whole entry): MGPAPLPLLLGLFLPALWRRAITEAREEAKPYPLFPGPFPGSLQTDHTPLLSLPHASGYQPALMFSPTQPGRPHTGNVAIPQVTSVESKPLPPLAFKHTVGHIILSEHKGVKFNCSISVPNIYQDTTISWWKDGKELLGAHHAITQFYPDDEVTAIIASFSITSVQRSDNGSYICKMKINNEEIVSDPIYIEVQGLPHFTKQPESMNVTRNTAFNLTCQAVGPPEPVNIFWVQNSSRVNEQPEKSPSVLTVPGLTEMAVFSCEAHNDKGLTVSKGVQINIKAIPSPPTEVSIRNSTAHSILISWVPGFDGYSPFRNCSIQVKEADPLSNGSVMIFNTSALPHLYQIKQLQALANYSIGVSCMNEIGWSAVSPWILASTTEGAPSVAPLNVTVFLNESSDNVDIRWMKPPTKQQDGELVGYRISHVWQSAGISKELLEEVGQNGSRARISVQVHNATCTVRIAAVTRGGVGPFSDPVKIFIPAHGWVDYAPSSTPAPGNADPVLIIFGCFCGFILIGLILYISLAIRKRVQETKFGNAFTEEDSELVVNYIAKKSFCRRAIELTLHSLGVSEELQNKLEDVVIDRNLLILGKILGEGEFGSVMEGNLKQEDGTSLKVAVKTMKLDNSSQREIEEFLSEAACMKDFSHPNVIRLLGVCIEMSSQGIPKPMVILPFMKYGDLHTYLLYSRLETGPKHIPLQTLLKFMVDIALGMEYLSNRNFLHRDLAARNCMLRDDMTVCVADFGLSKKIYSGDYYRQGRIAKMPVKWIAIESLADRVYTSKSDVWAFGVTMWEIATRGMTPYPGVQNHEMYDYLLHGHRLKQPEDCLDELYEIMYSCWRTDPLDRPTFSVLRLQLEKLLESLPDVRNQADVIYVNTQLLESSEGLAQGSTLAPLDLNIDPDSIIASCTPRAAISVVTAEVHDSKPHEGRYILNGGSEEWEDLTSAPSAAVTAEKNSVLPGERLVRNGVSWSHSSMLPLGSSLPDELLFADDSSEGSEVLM

[2] = Intrinsic clearance in rat hepatocytes assessed per 10^6 cells; format: ADME, cell-based, Hepatocyte; details: read-out: CLH
[3] = Distribution coefficient, logD of compound at pH 7.4; format: physicochemical; details: octanol/water
[4] = Aqueous solubility of the compound; format: physicochemical
[5] = target: T2, Tyrosine-protein kinase Mer (Homo sapiens) (UniProt Q12866); assay: as §1, with “residues) at 1 uM” for “residues)”, “analysis relative to control” for “analysis”; details: time 150.0 min
T2 sequence (whole entry): T1 sequence (Q12866 whole entry)

[6] = target: Tyrosine-protein kinase receptor UFO (Homo sapiens) (UniProt P30530); assay: Inhibition of GST-tagged AXL (unknown origin) ([…] residues) at 1 uM using Axltide (CKKSRGDYMTMQJG-acid) peptide as substrate preincubated for 30 mins followed by substrate and ATP addition at Km concentration measured after 180 mins by RapidFire LC-MS analysis relative to control; details: time 210.0 min
[7] = species: Homo sapiens; assay: Selectivity ratio of pIC50 for His6/TEV fused-GST-tagged Flt3 (unknown origin) (H564 to S993 residues) to pIC50 for 6His/thrombin cleavage site-fused Avi-tagged dephosphorylated MER (unknown origin) (R528 to M999 residues)
[8] = species: Homo sapiens; assay: Selectivity ratio of pIC50 for His6/TEV fused-GST-tagged Flt3 (unknown origin) (H564 to S993 residues) to pIC50 for GST-tagged AXL (unknown origin) ([…] residues)

Sequence of Tyrosine-protein kinase receptor UFO (Homo sapiens) (P30530 whole entry, the tested form may be a part): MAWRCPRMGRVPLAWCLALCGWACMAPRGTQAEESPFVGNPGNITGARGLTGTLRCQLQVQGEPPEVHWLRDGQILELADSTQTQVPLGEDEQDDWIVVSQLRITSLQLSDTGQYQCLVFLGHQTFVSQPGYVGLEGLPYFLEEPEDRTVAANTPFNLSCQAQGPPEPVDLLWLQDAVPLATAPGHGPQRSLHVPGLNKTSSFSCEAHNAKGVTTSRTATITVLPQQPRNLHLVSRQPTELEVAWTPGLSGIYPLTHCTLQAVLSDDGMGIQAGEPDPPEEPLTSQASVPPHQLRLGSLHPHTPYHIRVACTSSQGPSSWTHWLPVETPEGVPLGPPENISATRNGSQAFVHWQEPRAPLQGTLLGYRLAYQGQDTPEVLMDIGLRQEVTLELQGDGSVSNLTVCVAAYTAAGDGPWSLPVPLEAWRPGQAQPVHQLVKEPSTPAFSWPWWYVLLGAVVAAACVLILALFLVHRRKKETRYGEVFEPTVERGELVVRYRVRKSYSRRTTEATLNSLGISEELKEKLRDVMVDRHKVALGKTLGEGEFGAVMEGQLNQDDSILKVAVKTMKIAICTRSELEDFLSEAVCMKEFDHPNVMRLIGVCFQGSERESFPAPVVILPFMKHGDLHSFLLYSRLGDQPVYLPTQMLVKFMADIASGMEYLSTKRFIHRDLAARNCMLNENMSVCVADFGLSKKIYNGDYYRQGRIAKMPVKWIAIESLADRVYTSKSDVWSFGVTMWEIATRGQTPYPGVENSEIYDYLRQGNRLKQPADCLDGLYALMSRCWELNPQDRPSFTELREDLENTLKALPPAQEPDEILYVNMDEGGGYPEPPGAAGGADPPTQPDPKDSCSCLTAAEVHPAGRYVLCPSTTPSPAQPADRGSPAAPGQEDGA

Structure (SMILES)	IC50 [1]	hepatocyte CLint [2]	logD [3]	solubility [4]	inhibition [5]	inhibition [6]	Ratio pIC50 [7]	Ratio pIC50 [8]
Cc1c(C(=O)Nc2ccc(Oc3ccnc4[nH]cc(-c5ccccc5)c34)c(F)c2)c(=O)n(-c2ccc(F)cc2)n1C	1.58 nM	210 µL/min/1e6 cells	> 5	0.01 µM (≈ 0.00552 µg/mL)	–	–	–	–
Cc1cc(N(C)C)ccc1-c1nnc(N(C)Cc2ccc3nccn3c2)o1	631 nM	44 µL/min/1e6 cells	3.2	23 µM (≈ 8.34 µg/mL)	–	–	–	–
CN(Cc1ccc2nccn2c1)c1nnc(-c2ccc(-c3ccccc3Cl)cc2)o1	5.01 nM	21 µL/min/1e6 cells	4.8	1.1 µM (≈ 0.457 µg/mL)	–	–	–	–
COc1cc2ncnc(Nc3cnc(OCCC4CC4)nc3)c2cc1OCC1CCNCC1	251 nM	3 µL/min/1e6 cells	1.4	260 µM (≈ 117 µg/mL)	–	–	–	–
CCn1c(-c2nnc(N(C)Cc3ccc4nccn4c3)o2)nc2ccccc21	631 nM	22 µL/min/1e6 cells	3	120 µM (≈ 44.8 µg/mL)	–	–	–	–
CN(Cc1ccc2nccn2c1)c1nnc(-c2ccc(OC3CCCC3)cc2)o1	100 nM	52 µL/min/1e6 cells	4.1	33 µM (≈ 12.9 µg/mL)	–	–	–	–
CNc1nc(OCC2CCC2)nc2c1ncn2Cc1c(F)cccc1F	50.1 nM	160 µL/min/1e6 cells	4.4	4 µM (≈ 1.44 µg/mL)	–	–	–	–
CNC(=O)c1sc(N2CC3CC2(CNC(=O)c2c[nH]c4ncc(C(F)(F)F)cc24)C3)nc1C(F)(F)F	63.1 nM	78 µL/min/1e6 cells	4.2	< 1.6 µM	–	–	–	–
CN(Cc1ccc2c(c1)CCCO2)c1nnc(-c2ccc(-c3ccccc3Cl)cc2)o1	25.1 nM	19 µL/min/1e6 cells	> 5.6	0.1 µM (≈ 0.0432 µg/mL)	–	–	–	–
CN(Cc1ccc2nccn2c1)c1nnc(-c2ncc(C(F)(F)F)cc2Cl)o1	794 nM	6 µL/min/1e6 cells	2.6	301 µM (≈ 123 µg/mL)	–	–	–	–
CN(Cc1ccc2nccn2c1)c1nnc(-c2ccc(-c3ccccc3Cl)nc2)o1	126 nM	16 µL/min/1e6 cells	3.3	10 µM (≈ 4.17 µg/mL)	–	–	–	–
CNC(=O)c1sc(N2CC3CC2(CNC(=O)c2c[nH]c4ncc(Cl)cc24)C3)nc1C(F)(F)F	25.1 nM	120 µL/min/1e6 cells	4	2 µM (≈ 0.998 µg/mL)	> 75%	> 75%	> 60	> 60

Second part, the compound after the results:

IC50 [1]	hepatocyte CLint [2]	logD [3]	solubility [4]	inhibition [5]	inhibition [6]	Ratio pIC50 [7]	Ratio pIC50 [8]	Structure (SMILES)
25.1 nM	33 µL/min/1e6 cells	3.1	< 1.6 µM	–	–	–	–	CNC(=O)c1sc(N2CC3CC2(CNC(=O)c2c[nH]c4ncccc24)C3)nc1C(F)(F)F
5.01 nM	260 µL/min/1e6 cells	4.2	< 0.2 µM	–	–	–	–	CNC(=O)C[C@@H](NC(=O)[C@@H](CCc1ccccc1)NC(=O)c1c(C)noc1-c1snnc1C)c1ccc(C(F)(F)F)cc1
12.6 nM	92 µL/min/1e6 cells	3.5	< 1.6 µM	–	–	–	–	CNC(=O)c1sc(N2CC3CC2(CNC(=O)c2c[nH]c4ncc(C)cc24)C3)nc1C(F)(F)F
50.1 nM	88 µL/min/1e6 cells	4.5	0.6 µM (≈ 0.297 µg/mL)	–	–	–	–	O=S(=O)(c1ccc(Nc2ncc(N3CCOCC3)c(Nc3ccccc3)n2)cc1)N1CCCCC1
50.1 nM	< 2.4 µL/min/1e6 cells	3.2	400 µM (≈ 190 µg/mL)	–	–	–	–	C[C@@H]1CN(c2cnc(Nc3cc(F)c(OCC4CC4)c(F)c3)nc2NC2CCOCC2)CCN1
